Columns and labels:
DU145 = assay: 96 hour growth inhibition, DU145; format: cell-based; conditions: Homo sapiens, DU-145, DU145, PROSTATE (AR−)
Protocol: (§1) Two compounds were selected from our library of cytotoxic molecules for immunoconjugation since they both have IC50 values in the low nanomolar range. Various tumor cell lines (ATCC) were treated for 96 hours in the presence of increasing concentrations of each compound and the total number of viable cells remaining was determined after 96 hours of exposure. The IC50 value was determined to be the amount of drug required to inhibit the growth of each cell line 50% as compared to vehicle treated cells.

Sk-OV-3 = assay: 96 hour growth inhibition, Sk-OV-3; format: cell-based; conditions: Homo sapiens, Sk-OV-3, OVARIAN
Protocol: as §1

U87 = assay: 96 hour growth inhibition, U87; format: cell-based; conditions: Homo sapiens, U-87 MG, U87, GLIOBLASTOMA
Protocol: as §1

H157 = assay: 96 hour growth inhibition, H157; format: cell-based; conditions: Homo sapiens, NCI-H157, H157, NSCLC
Protocol: as §1

A549 = assay: 96 hour growth inhibition, A549; format: cell-based; conditions: Homo sapiens, A549, NSCLC
Protocol: as §1

AGS = assay: 96 hour growth inhibition, AGS; format: cell-based; conditions: Homo sapiens, GASTRIC
Protocol: as §1

RF48 = assay: 96 hour growth inhibition, RF48; format: cell-based; conditions: RF48, GASTRIC
Protocol: as §1

DLD-1 = assay: 96 hour growth inhibition, DLD-1; format: cell-based; conditions: Homo sapiens, DLD-1, COLO-RECTAL
Protocol: as §1

HCT-15 = assay: 96 hour growth inhibition, HCT-15; format: cell-based; conditions: Homo sapiens, HCT-15, COLO-RECTAL
Protocol: as §1

SW480 = assay: 96 hour growth inhibition, SW480; format: cell-based; conditions: Homo sapiens, SW480, COLO-RECTAL
Protocol: as §1

CEM = assay: 96 hour growth inhibition, CEM; format: cell-based; conditions: Homo sapiens, CCRF-CEM
Protocol: as §1
(§2) Another extremely important predictive factor is the ability of these compounds to kill cell lines overexpressing multiple drug resistance (MDR) genes. A very high percentage of cancer patient relapses are due to some form of resistance to traditional chemotherapy. Of these patients, the vast majority express one or more of the MDR genes within the ABC transport gene family. Overexpression of these genes increases the efflux of compounds that are recognized by these pumping systems. […] Onconova's benzyl styryl sulfone compounds are not recognized by the MDR-1 gene and therefore provide an advantage over other highly toxic drugs including but not limited to the taxanes, doxorubicin, etoposide, and vinca-alkaloids. […] MES-SA/Dx5, uterine sarcoma, and […], ovarian, are both classical multidrug resistant cell lines that are cross resistant to the taxanes and anthracyclins. Harker, W G, and Sikic, B. I., Multidrug (Pleiotropic) Resistance In Doxorubicin-Selected Variants Of The Human Sarcoma Cell Line MES-SA, Cancer Res. 45(9):4091-6 (1985). MES-SA/Dx5 and Apr. […] Fujimori, A., et al., Mutation At The Catalytic Site Of Topoisomerase I In CEM/C2, A Human Leukemia Cell Line Resistant To Camptothecin, Cancer Res. 55(6): 1339-46 (1995). ON 01500 and ON 013100, for example, are both extremely active against these resistant cell lines.

K562 = assay: 96 hour growth inhibition, K562; format: cell-based; conditions: Homo sapiens, K562, CML
Protocol: as §1

MOLT-4 = assay: 96 hour growth inhibition, MOLT-4; format: cell-based; conditions: Homo sapiens, MOLT-4, T-lymphoblastic:ALL
Protocol: as §1

Namalwa = assay: 96 hour growth inhibition, Namalwa; format: cell-based; conditions: Burkitt's Lymphoma (B-cell)
Protocol: as §1

BT20 = assay: growth inhibition, breast carcinoma cell line BT20; format: cell-based; conditions: Homo sapiens, BT-20; BT20, BREAST (ER−), HER2 ++
Protocol: as §1
(§3) Certain embodiments of immunoconjugates described herein are targeted to HER2 expressing breast cancer cells. Certain embodiments of immunoconjugates described herein are targeted to multiple myeloma (MM) cell lines expressing the surface antigens CD38 and or CD138. The IC50 value of ON 015100 and ON 013100 was determined for a number of breast cell lines as well as a panel of multiple myeloma cell lines expressing varying levels of each antigen and the data are shown in table (4) and table (5), respectively. […] Two cell lines, SK-BR-3 and BT474, known to express very high levels of HER2 are more than 2 fold more sensitive to ON 013100 as compared to the cell lines which express lower levels of HER2. Marx C., et al., Validated High-Throughput Screening of Drug-Like Small Molecules for Inhibitors of ErbB2 Transcription. Assay Drug Dev. […]

T47D = assay: growth inhibition, breast carcinoma cell line T47D; format: cell-based; conditions: Homo sapiens, BREAST (ER+), HER2 +
Protocol: as §1, §3

MCF-7 = assay: growth inhibition, breast carcinoma cell line MCF-7; format: cell-based; conditions: Homo sapiens, MCF7; MCF-7, BREAST (ER+), HER2 +
Protocol: as §1, §3

U266 = assay: growth inhibition, multiple myeloma cell line U266; format: cell-based; conditions: Homo sapiens, U-266, CD38 −/+ CD138 + CD20 −
Protocol: as §1
(§4) Pellat-Deceunynk, C., et al., Human Myeloma Cell Lines As A Tool For Studying The Biology Of Multiple Myeloma: A Reappraisal 18 Years After, Blood 86(10):4001-2 (1995); Gooding, R. P., et al., Phenotypic And Molecular Analysis Of Six Human Cell Lines Derived From Patients With Plasma Cell Dyscrasia, British Journal of Haematology 106:669-688 (1999).

OPM-2 = assay: growth inhibition, multiple myeloma cell line OPM-2; format: cell-based; conditions: Homo sapiens; OPM-2, multiple myeloma, CD38 + CD138 + CD20 −
Protocol: as §1, §4

NCI-H929 = assay: growth inhibition, multiple myeloma cell line NCI-H929; format: cell-based; conditions: Homo sapiens, CD38 + CD138 + CD20 −
Protocol: as §1, §4

2008/17/4 (RESISTANT) = assay: growth inhibition, 2008/17/4 (resistant); format: cell-based; conditions: for RSIST-ANCE: 2008/17/4 (RESISTANT) versus 2008 (PARENTAL); for IC50: 2008/17/4 (RESISTANT), ovarian, multidrug resistant
Protocol: as §1, §2

CEM/C2 (RESISTANT) = assay: growth inhibition, CEM/C2 (resistant); format: cell-based, Human; conditions: for RSIST-ANCE: CEM/C2 (RESISTANT) versus CEM (PARENTAL); for IC50: Homo sapiens, CEM/C2 (RESISTANT), non classical multiple drug resistant
Protocol: as §1, §2

SMILES	IC50 (DU145) [nM]	IC50 (Sk-OV-3) [nM]	IC50 (U87) [nM]	IC50 (H157) [nM]	IC50 (A549) [nM]	IC50 (AGS) [nM]	IC50 (RF48) [nM]	IC50 (DLD-1) [nM]	IC50 (HCT-15) [nM]	IC50 (SW480) [nM]	IC50 (CEM; CEM (PARENTAL)) [nM]	IC50 (CEM; CEM, […], 96 hours) [nM]	IC50 (K562) [nM]	IC50 (MOLT-4) [nM]	IC50 (Namalwa) [nM]	IC50 (BT20) [nM]	IC50 (T47D) [nM]	IC50 (MCF-7) [nM]	IC50 (U266) [nM]	IC50 (OPM-2) [nM]	other results
COc1cc(OC)c(/C=C/S(=O)(=O)Cc2ccc(OC)c(O)c2)c(OC)c1 [ON 013100, (E)-5-((2,4,6-trimethoxystyrylsulfonyl)methyl)-2-methoxyphenol]	5	4	7	7	10	5	1	7	7	5	4	4	4	1.5	3	80	10	10	5	4	IC50 (NCI-H929): 1 nM; RSIST-ANCE (2008/17/4 (RESISTANT)): 1.3; IC50 (2008/17/4 (RESISTANT)): 6 nM; RSIST-ANCE (CEM/C2 (RESISTANT)): 0.75; IC50 (CEM/C2 (RESISTANT)): 3 nM
COc1cc(OC)c(/C=C/S(=O)(=O)Cc2ccc(OC)c(N)c2)c(OC)c1 [ON 01500, (E)-2,4,6-trimethoxystyryl-4-methoxy-3-aminobenzylsulfone]	5	3	3	4	3	3	1	6	5	6	10	10	2.5	4	5	4	3	1	3	3	IC50 (NCI-H929): 0.8 nM; RSIST-ANCE (2008/17/4 (RESISTANT)): 1; IC50 (2008/17/4 (RESISTANT)): 3 nM; RSIST-ANCE (CEM/C2 (RESISTANT)): 1; IC50 (CEM/C2 (RESISTANT)): 10 nM
